Measurements published in US20260185025A1, “MICROPHYSIOLOGICAL PLATFORM WITH EMBEDDED ELECTRODES FOR 3D TISSUE CULTURE” (VALO HEALTH, INC., priority 2020, published 2026).

Tested on: human engineered cardiac tissues (human iPSC derived cardiomyocytes co-cultured with human cardiac fibroblasts)
Assay: Drug testing of engineered cardiac tissues in Biowire II 96-well plate under electrical pacing (contractile dynamics by wire displacement)
Type: cell-based
Conditions: day 19 tissues, n=2 (FIG. 7H)
Protocol: To generate cardiac tissues, human iPSC derived cardiomyocytes co-cultured with human cardiac fibroblasts were seeded with hydrogel in the 96-well plate device. Tissue compaction in the first seven days was observed (FIG. 7A, FIG. 7B), with dramatic change in the first two days followed by stabilization after day 3. Electrical field stimulation of cardiac tissues was initiated at day 7 and continued for the additional 12 days. […] Thapsigargin (50×10^-6 m), an inhibitor of sarcoplasmic reticulum function in cardiomyocytes, was added in the presence of electrical pacing (1.5 Hz), resulting in a prolonged tissue contraction and relaxation time (FIG. 7H). […] Predominantly ventricular cardiomyocytes (CMs) were derived from the hiPSC line BJ1D, using monolayer differentiation protocols as previously described. At day 21 of differentiation, cardiomyocytes were disassociated into single cells with previously established methods. Briefly, 1 mg mL^-1 of collagenase type II (Worthington, LS004205) in Hank's Balanced Salt Solution was added to the monolayer cardiomyocyte cultures and incubated overnight at room temperature. The disassociated cells were mixed with cardiac fibroblasts (Lonza, NHCF-V) in a 10:1 cell number ratio. The mixed cells were pelleted and remixed in collagen hydrogel at 5.5×10^7 cells mL^-1. The cell-gel mixture was seeded at […] per microwell. A droplet of media was placed on the wall of the well to keep the moisture until gelation was complete. The plate was incubated at 37° C. and 5% CO2 for 10 min followed by media addition. […] Average tissue width and width of the tissue (Tw), attachment site to the polymer sensor were measured using bright field images at the relaxed state. Passive displacement of polymer sensors was assessed in blue channel. […] The final readouts for the total and passive forces were interpolated according to the Tw and custom tip sizes. […] With built-in force sensor and electrodes, tissues were able to be assessed in situ in terms of their contractile dynamics and drug responses. […] The videos were analyzed using the custom MATLAB software. […]

[1] = 50×10^−6 m, electrical pacing 1.5 Hz, video 15 min after addition

`C/C=C(/C)C(=O)O[C@H]1C(C)=C2[C@H]([C@@H]1OC(=O)CCCCCCC)[C@@](C)(OC(C)=O)C[C@H](OC(=O)CCC)[C@@]1(O)[C@H]2OC(=O)[C@@]1(C)O` [Thapsigargin] was tested, and the tissue contraction time [1] was “prolonged”, the tissue relaxation time [1] was “prolonged” and the “frequency of tissue beating” value (thapsigargin 50 µM, constant stimulation frequency 1.5 Hz) was “decreased by half”.
